Source: article PMC5856786, “A DHODH inhibitor increases p53 synthesis and enhances tumor cell killing by p53 degradation blockage” (Nature Communications, 2018)

Columns and labels:
ARN8 xenograft = experiment: ARN8 subcutaneous xenograft; type: in vivo; conditions: ARN8 xenograft
Protocol: All animal xenograft experiments were approved by the Norwegian Animal Research Authority and conducted according to The European Convention for the Protection of Vertebrates Used for Scientific Purposes. […] The health status and weight of the mice were monitored daily and they were randomized in a non-blinded manner into 4 groups when tumor volumes reached 30–40 mm^3. […] Tumor volumes were measured every second day by a digital caliper using the following ellipsoid formula: Volume = π (length × width × height)/6.
To determine the efficacy of (R)-HZ05 in combination with nutlin-3a, 4 groups of NSG mice (n = 8 per group) were subcutaneously injected in the flank region with a single 100 μL injection of 2 × 10^6 ARN8 cells in a solution of PBS:Matrigel (volume ratio 3:1). Treatment was initiated when tumors reached ~50 mm^3. The maximum tolerated dose for this combination of drugs was previously determined for the strain we used. The endpoint of the experiment was determined by the tumor size ([…]) weight loss, and general condition of the mice according to The Norwegian Animal Research Authority.

HNDF cells = experiment: PI flow cytometry, sub-G1 cells, HNDF; type: cell-based, human
Protocol: Cell cycle distribution analysis was performed on a Becton Dickinson FACScan flow cytometer or FACSCalibur (BD Biosciences) following staining with propidium iodide (PI) or dual labeling with BrdU and PI[36]. These assays were analyzed using CellQuest Pro (BD Biosciences).

ARN8 cells = experiment: Giemsa staining of ARN8 cultures (uridine, orotic acid, dihydroorotic acid supplementation); type: cell-based, human; conditions: 72 h, 2.5 or 5 μM uridine, serum replacement medium
Protocol: Additionally, ARN8 cells were treated for 16 h and p53-dependent transcription was measured by CPRG assay. Values correspond to the average of three technical repeats ± SD. c Simplified description of the pyrimidine nucleotide de novo (blue) and salvage (black) pathways. d ARN8 cells were seeded in FBS supplemented DMEM with a change to serum replacement medium 24 h post seeding. […] Values correspond to the average of three technical repeats ± SD. f ARN8 cells were seeded in FBS supplemented DMEM with a change to serum replacement medium 24 h post seeding.

recombinant human DHODH = recombinant human DHODH (Homo sapiens, UniProt Q02127); experiment: Kinetic DHODH enzyme assay (3,4-dimethoxy-5-methyl-p-benzoquinone, DCIP); type: biochemical; parameters: made in house
Sequence of recombinant human DHODH (Q02127 29-395 limits assumed): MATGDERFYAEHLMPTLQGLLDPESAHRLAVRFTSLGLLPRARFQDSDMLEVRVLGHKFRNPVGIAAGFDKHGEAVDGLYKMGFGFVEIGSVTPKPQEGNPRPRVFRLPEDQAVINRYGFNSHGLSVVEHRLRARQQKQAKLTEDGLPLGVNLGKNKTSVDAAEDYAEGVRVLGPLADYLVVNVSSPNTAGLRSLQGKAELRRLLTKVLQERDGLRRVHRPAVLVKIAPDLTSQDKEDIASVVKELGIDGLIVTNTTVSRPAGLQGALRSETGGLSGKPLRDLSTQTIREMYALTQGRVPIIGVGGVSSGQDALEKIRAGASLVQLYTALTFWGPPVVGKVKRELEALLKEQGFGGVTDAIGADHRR
Protocol: In Fig. 5a enzyme assays were optimized and performed with 6 nM recombinant human DHODH prepared as described. The reaction mixture for these kinetic assays consisted of 1 mM DL-dihydroorotic acid, 100 µM 3,4-dimethoxy-5-methyl-p-benzoquinone (#D9150, Sigma-Aldrich), and 100 µM DCIP in enzyme buffer. A stock solution of 20 mM DCIP was prepared in enzyme buffer and filtered through filter paper (20–25 μm pore size) just before use. Loss in absorbance by DCIP was measured at 595 nm at RT in a stepped time course (8 × 2 min, 8 × 3 min, 6 × 5 min). […] Therefore, for each concentration of inhibitor tested, a value for DHODH’s Vmax was estimated by linear regression within this time frame.

human mdmx (hdmx) = target: T1, human mdmx (hdmx) (Homo sapiens, UniProt O15151); experiment: hdmx binding (CETSA in ARN8 extracts; ELISA with IP3 peptide); conditions: CETSA at 100 μM
T1 construct: ARN8 soluble cell extracts were prepared for the cellular thermal shift assay (CETSA); endogenous in cells; host or cells: ARN8 human melanoma cells (soluble extract)
T1 sequence (O15151 whole entry): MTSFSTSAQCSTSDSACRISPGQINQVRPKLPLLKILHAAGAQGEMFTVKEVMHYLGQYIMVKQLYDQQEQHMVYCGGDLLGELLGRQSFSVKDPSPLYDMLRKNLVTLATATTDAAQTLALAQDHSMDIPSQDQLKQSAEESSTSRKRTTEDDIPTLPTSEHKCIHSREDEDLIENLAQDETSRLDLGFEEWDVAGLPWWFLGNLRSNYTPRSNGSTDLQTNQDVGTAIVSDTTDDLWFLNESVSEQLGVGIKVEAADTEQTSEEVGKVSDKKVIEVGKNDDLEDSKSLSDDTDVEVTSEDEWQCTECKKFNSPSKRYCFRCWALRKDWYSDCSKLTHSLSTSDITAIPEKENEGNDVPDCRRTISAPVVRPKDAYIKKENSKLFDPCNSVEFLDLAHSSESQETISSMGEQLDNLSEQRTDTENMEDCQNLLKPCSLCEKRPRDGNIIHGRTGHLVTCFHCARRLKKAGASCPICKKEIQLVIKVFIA
Protocol: (§1) Levels of gapdh were used to monitor protein loading. e ARN8 or HNDF cells were treated with the indicated compound concentrations for 72 h and subjected to MTT assays. […] Incorporation of ^35S in the p53 immunoprecipitate was determined by autoradiography. The experiment is shown in duplicate
(§2) corresponds to residues 17−26 of wild-type p53) was determined by ELISA (See
(§3) supplementary information9). The percentage hdm2/hdmx bound to IP3 relative to the vehicle
(§4) upon which cycloheximide (CHX) (10 µg mL-1) was added for the indicated periods of time. […]

total RNA in ARN8 cells = experiment: Total RNA quantification; type: cell-based, human
Protocol: Cells were fixed in 4 % paraformaldehyde made in PBS followed by 10 min at 37 °C, permeabilization in 0.15 % Triton X-100 for 1-2 min at 37 °C, and staining with antibodies against nucleolin and p53. Images were taken using Olympus IX-71 microscope controlled by Delta Vision SoftWorx. Image stacks were deconvolved, quick-projected and saved as tiff images to be processed using Adobe PhotoShop. Antibodies to specific antigens are listed in Supplementary Table 8. b) ARN8 […]
(§5) was extracted and quantified. […]

lipid kinases = experiment: ADP-Glo kinase assays, panel of 16 lipid kinases (Supplementary Table 3); type: biochemical
Source text: Supplementary Table 3. In vitro inhibition (% remaining activity) of lipid […]
kinases using ADP-Glo™ kinase assays (Promega) according to manufacturer ’s instructions (International Centre for Kinase Profiling, Dundee, UK).
(§6) (1 picture or pasted object on this page, not shown here)

[1] = system: cyclin-dependent kinases (CDKs); experiment: 33PanQinase radiometric kinase assay, panel of 16 CDKs (Supplementary Table 1); type: biochemical
Source text: Supplementary Table 1. In vitro inhibition (% remaining activity) of cyclin-dependent
ProQinase GmbH (Freiburg, Germany) using a radiometric protein kinase assay
(33PanQinase® Activity Assay).
as §6

nucleoli in HCT116 cells = experiment: Immunofluorescence of nucleolin and p53; type: cell-based; conditions: Supplementary Fig. 4a
Protocol: Protein extracts were prepared in 1× LDS sample buffer (Invitrogen) with 100 mM DTT and separated and transferred using the Invitrogen western blotting system except in Supplementary Fig. 1c where the BioRad western blotting system was used. HRP-conjugated secondary antibodies were obtained from Dako (#P016102 and #P0211702) or Santa Cruz (#SC-2020). Immunofluorescence was performed by fixing cells in 4% paraformaldehyde freshly made in PBS for 10 min at 37 °C. Following fixation, cells were permeabilized in 0.15% Triton X-100 for 1–2 min at 37 °C followed by staining with the indicated antibodies. Images were taken using Olympus IX-71 microscope controlled by DeltaVision SoftWoRx. Image stacks were deconvolved, quick-projected and saved as tiff images to be processed using Adobe Photoshop. Antibodies to specific antigens are listed in Supplementary Table 8. All original films for blots in Fig. 1 are shown in Supplementary Figs. 9–12.
Cells were fixed in 4 % paraformaldehyde made in PBS followed by 10 min at 37 °C, permeabilization in 0.15 % Triton X-100 for 1-2 min at 37 °C, and staining with antibodies against nucleolin and p53. Images were taken using Olympus IX-71 microscope controlled by Delta Vision SoftWorx. Image stacks were deconvolved, quick-projected and saved as tiff images to be processed using Adobe PhotoShop. […]
as §5

human mdm2 (hdm2) = target: T2, human mdm2 (hdm2) (Homo sapiens, UniProt Q00987); experiment: hdm2 binding (CETSA in ARN8 extracts; ELISA with IP3 peptide); conditions: CETSA at 100 μM
T2 construct: ARN8 soluble cell extracts were prepared for the cellular thermal shift assay (CETSA); endogenous in cells; host or cells: ARN8 human melanoma cells (soluble extract)
T2 sequence (Q00987 whole entry): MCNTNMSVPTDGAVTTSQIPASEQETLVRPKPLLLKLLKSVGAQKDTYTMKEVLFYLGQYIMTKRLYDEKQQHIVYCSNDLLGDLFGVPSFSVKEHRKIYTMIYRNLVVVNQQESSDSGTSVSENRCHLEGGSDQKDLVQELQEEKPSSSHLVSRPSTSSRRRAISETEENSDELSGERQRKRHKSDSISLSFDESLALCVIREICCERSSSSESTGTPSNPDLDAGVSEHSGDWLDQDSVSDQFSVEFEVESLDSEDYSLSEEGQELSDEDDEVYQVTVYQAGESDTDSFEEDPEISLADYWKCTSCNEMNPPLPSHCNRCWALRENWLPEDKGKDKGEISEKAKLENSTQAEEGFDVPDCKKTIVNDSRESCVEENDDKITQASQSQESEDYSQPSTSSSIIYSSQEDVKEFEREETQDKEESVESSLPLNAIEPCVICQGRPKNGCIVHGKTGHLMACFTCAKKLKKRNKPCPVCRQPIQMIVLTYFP
Protocol: as §1, §2, §3, §4

| SMILES | xenograft tumor growth, combination with nutlin-3a (ARN8 xenograft; (R)-HZ05 75 mg/kg q.d. s.c. + nutlin-3a 50 mg/kg b.i.d. orally, 10 days) | xenograft tumor growth, single agent (ARN8 xenograft; (R)-HZ05 75 mg/kg q.d. s.c. or nutlin-3a 50 mg/kg b.i.d. orally) | sub-G1 cells (HNDF cells; HZ05 1 μM 72 h + 48 h, 2 μM nutlin-3a last 48 h) [%] | sub-G1 cells (HNDF cells; HZ05 1 μM 72 h + 48 h, DMSO last 48 h) [%] | sub-G1 cells (HNDF cells; HZ05 1 μM, 72 h treatment) [%] | sub-G1 cells (HNDF cells; HZ05 2.5 μM, 72 h treatment) [%] | tumor cell growth at physiological uridine levels (ARN8 cells) | IC50 (recombinant human DHODH; Fig. 5a, average of three independent repeats ± SD) [nM] | concentration inhibiting DHODH enzymatic activity (recombinant human DHODH; authors' response in peer review file) | binding to human mdmx (hdmx) (human mdmx (hdmx)) | total RNA levels (total RNA in ARN8 cells) | inhibition of lipid kinases (lipid kinases) | inhibition of cyclin-dependent kinases [1] | effect on nucleoli (nucleoli in HCT116 cells) | binding to human mdm2 (hdm2) (human mdm2 (hdm2)) |
| --- | --- | --- | --- | --- | --- | --- | --- | --- | --- | --- | --- | --- | --- | --- | --- |
| O=C(NC1CCCc2c1cnn2-c1ccccc1F)c1onc2c1CCCC2 (stereo not drawn) [HZ05] | statistically significant reduction in xenograft growth | ineffective | 1.9 | 2.2 | 1.9 | 2.9 | able to ablate tumor cell growth | 32 ± 2 | below 40 nM | – | – | – | – | – | – |
| O=C(NC1CCCc2c1cnn2-c1ccccc1F)c1ccccn1 (stereo not drawn) [HZ00] | – | – | – | – | – | – | – | – | – | not detected | drop in total RNA levels | did not detect inhibition | did not detect inhibition | nucleoli were disrupted | does not bind |
